Measurements published in US20070196850A1, “Identification of aging genes through large-scale analysis” (priority 2006, published 2007).
Read-outs that look alike come from different tables or passages of the source.

Test system: yeast cells (BY4742)
Assay type: cell-based, Saccharomyces cerevisiae
Protocol: FIG. 2 illustrates replicative life span (“RLS”) analysis in yeast. […] A mother cell is a yeast cell that has produced one or more daughter cells. […] The total number of mitotic divisions completed by a given mother cell is the replicative life span for that mother cell. One indicator of senescence in yeast is the inability to produce daughter cells.
A large-scaled, life-span analysis is performed as follows. Approximately three days before initiating a life-span-determination assay, a set of 95 strains contained in a yeast alpha-haploid-deletion collection (Open Biosystems), is transferred to a 96-well plate containing YPDagar using a FX robot, so that each strain occupies one well of a 96-well plate. Concurrently, “wildtype” reference cells (BY4742) are plated within an empty well of the 96-well test plate. For 1-2 days, plated cells are allowed to grow on rich medium, such as YPD, at 30° C. Cells are patched onto life-span-measuring plates containing YPD so that approximately 12 strains are plated per plate the night, or approximately 12 hours, before initiating life-span analysis. A life-span experiment is initiated by gridding a region of the plate distal to growing cells, to which 5 cells of each strain of 12 strains are transferred by micromanipulation. Cells are incubated for two hours at 30° C. Then, virgin daughter cells of each deletion variant cell are selected, and original mother cells are removed. Such virgin daughter cells are monitored for de novo production of daughters at 2-3 hour intervals. Produced daughters are individually removed, and tabulated. Mother cells are placed back at 30° C. to allow continued growth. During evening hours, cells are moved to 4° C. so that the cell division rate is reduced to one cell division per evening. The following day, cells are placed at 30° C. to resume growth. This process is continued for a period of time, approximately two weeks, to allow cells of each variant strain to exhaust its proliferative potential. The total number of daughter cells produced by each mother variant cell is tabulated, and determined RLS values are entered into a database.
To perform the life span experiment, 15 μg/mL diazaborine A was added to standard yeast life span plates (YPD). Cells are patched to these plates the night prior to initiation of the life span. The next morning, individual cells were moved to a location on the plate distant from the patch and allow them to divide. The first daughters produced by each mother cell are used to initiate the life span experiment. Subsequently, each daughter cell that these cells produce is removed with a micromanipulator and tabulations are kept.

| SMILES | life span of yeast cells on drug treatment (yeast cells treated with drug vs no drug control) | replicative life span in yeast (exposure of yeast cells to MSX) | life span (yeast, 50 uM) | life span (yeast, 100 uM) | life span (yeast, 1 mM) | increase in mean replicative life span (maximal life span extension) (yeast, 1 mM, preliminary experiments) | life span (yeast, 2.5 mM) |
| --- | --- | --- | --- | --- | --- | --- | --- |
| C[C@@H]1C[C@@H]([C@H](O)CC2CC(=O)NC(=O)C2)C(=O)[C@@H](C)C1 [cycloheximide] | does not increase life span | – | – | – | – | – | – |
| CS(=N)(=O)CC[C@H](N)C(=O)O (stereo partly shown) [MSX, methionine sulfoximine] | – | extends replicative life span | significantly increases life span | significantly increases life span | significantly increases life span | 25-30% | significantly increases life span |
